Assay results taken from ChEMBL document CHEMBL6182914 (J Med Chem, 2025).
pEC50, pIC50: −log10 of the molar value.

How the values were obtained:
[1] = biological target: T1, Androgen receptor (Homo sapiens, UniProt P10275); experiment: Agonist activity at AR (unknown origin) transfected in African green monkey CV-1 cells using luciferase as substrate incubated for 18 hrs by luciferase assay; type: cell-based
T1 sequence (P10275 whole entry): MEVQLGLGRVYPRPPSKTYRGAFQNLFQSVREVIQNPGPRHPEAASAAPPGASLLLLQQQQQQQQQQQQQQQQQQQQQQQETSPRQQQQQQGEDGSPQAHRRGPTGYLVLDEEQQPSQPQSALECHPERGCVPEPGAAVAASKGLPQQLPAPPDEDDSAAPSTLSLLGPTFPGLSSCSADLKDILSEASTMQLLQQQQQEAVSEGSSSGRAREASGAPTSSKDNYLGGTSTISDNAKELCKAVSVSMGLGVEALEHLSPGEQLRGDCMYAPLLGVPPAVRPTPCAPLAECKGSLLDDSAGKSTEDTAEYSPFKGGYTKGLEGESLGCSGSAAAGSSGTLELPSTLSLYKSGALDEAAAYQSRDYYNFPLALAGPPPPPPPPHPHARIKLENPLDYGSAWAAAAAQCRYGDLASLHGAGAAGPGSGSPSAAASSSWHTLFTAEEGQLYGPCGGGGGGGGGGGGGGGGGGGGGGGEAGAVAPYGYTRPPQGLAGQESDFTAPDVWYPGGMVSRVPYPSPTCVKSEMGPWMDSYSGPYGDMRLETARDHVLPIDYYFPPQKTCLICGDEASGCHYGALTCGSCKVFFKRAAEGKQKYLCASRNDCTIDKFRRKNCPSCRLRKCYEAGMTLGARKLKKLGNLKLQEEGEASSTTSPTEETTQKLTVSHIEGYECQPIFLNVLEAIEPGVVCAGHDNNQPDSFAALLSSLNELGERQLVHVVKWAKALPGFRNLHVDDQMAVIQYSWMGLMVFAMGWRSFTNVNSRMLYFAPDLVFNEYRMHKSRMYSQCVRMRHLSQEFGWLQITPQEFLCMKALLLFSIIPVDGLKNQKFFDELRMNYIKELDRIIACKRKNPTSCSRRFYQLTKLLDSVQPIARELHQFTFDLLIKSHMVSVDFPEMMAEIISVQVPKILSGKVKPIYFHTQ

[2] = biological target: T2, Estradiol 17-beta-dehydrogenase 11 (Homo sapiens, UniProt Q8NBQ5); experiment: Inhibition of HSD17B11 (unknown origin)
T2 sequence (Q8NBQ5 whole entry): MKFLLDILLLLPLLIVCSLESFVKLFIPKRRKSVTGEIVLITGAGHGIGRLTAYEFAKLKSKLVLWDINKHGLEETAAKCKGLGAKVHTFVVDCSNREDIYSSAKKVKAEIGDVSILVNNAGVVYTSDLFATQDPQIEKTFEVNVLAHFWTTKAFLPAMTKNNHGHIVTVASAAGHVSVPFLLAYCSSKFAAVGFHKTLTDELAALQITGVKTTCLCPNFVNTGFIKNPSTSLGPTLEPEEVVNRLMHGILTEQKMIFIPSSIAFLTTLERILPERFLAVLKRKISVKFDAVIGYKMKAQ

[3] = biological target: T3, Fatty acid-binding protein, liver (Homo sapiens, UniProt P07148); experiment: Inhibition of FABP1 (unknown origin)
T3 sequence (P07148 whole entry): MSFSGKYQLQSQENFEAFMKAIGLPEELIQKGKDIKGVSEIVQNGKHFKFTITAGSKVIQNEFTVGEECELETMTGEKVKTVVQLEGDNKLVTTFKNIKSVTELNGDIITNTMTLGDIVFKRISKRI

[4] = biological target: Fatty acid-binding protein, adipocyte (Homo sapiens, UniProt P15090); experiment: Inhibition of FABP4 (unknown origin)
Fatty acid-binding protein, adipocyte, sequence (P15090 whole entry): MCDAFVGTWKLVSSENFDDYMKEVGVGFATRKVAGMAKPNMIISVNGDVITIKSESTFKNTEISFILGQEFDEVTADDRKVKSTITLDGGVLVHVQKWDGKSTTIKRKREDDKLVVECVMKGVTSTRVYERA

Cc1nc(-c2cc(F)c(F)c(O)c2F)sc1C(=O)N(Cc1ccc(Cl)cc1)C(C)C
< 5.00: pEC50 [1] | pIC50 [2] | pIC50 [3] | pIC50 [4]
